Measurements taken from the NIST ThermoML archive (doi:10.1021/acs.jced.7b00099).
Where “and” joins values, the source holds several entries; their conditions need not be identical. Identical values can stand only once. ± gives the expanded uncertainty stated by the source.

Conditions: Liquid, Closed cell (Static) method

SMILES	vapor or sublimation pressure (353.15 K)	vapor or sublimation pressure (363.15 K) [kPa]	vapor or sublimation pressure (373.15 K)	vapor or sublimation pressure (383.15 K)	vapor or sublimation pressure (393.15 K)	vapor or sublimation pressure (403.15 K) [kPa]	vapor or sublimation pressure (413.15 K)	vapor or sublimation pressure (423.15 K)	vapor or sublimation pressure (433.15 K)	vapor or sublimation pressure (443.15 K) [kPa]	vapor or sublimation pressure (453.15 K) [kPa]	also measured
CCCCCCCCCCCC(=O)OC [methyl dodecanoate]	0.0644 ± 0.0024 kPa	0.1217 ± 0.0043	0.2212 ± 0.0072 kPa	0.388 ± 0.012 kPa	0.657 ± 0.009 kPa	1.08 ± 0.014	1.728 ± 0.011 kPa	2.694 ± 0.015 kPa	4.104 ± 0.019 kPa	–	–	–
CCCCCCCCCCCCCCCC(=O)OC [methyl hexadecanoate]	–	–	0.0158 ± 0.0008 kPa	0.0294 ± 0.0012 kPa	0.0535 ± 0.002 kPa	0.095 ± 0.003	0.1644 ± 0.0055 kPa	0.2789 ± 0.009 kPa	0.4635 ± 0.015 kPa	0.756 ± 0.01	1.21 ± 0.016	–
CCCCCCCCCCCCCC(=O)OC [methyl tetradecanoate]	0.0133 ± 0.0007 kPa	0.0267 ± 0.0011	0.0516 ± 0.0019 kPa	0.0959 ± 0.0034 kPa	0.1723 ± 0.0057 kPa	0.3003 ± 0.0096	0.509 ± 0.016 kPa	0.839 ± 0.011 kPa	1.35 ± 0.01 kPa	2.123 ± 0.013	3.27 ± 0.016	–
CCCCCCCCCCCCCC [tetradecane]	0.1355 ± 0.0046 kPa and 0.1354 ± 0.0046 kPa	0.2517 ± 0.0081	0.4469 ± 0.014 kPa and 0.4472 ± 0.014 kPa	0.762 ± 0.01 kPa and 0.763 ± 0.01 kPa	1.254 ± 0.016 kPa and 1.255 ± 0.016 kPa	1.998 ± 0.013	3.09 ± 0.016 kPa and 3.086 ± 0.016 kPa	4.652 ± 0.021 kPa and 4.642 ± 0.021 kPa	6.836 ± 0.029 kPa and 6.812 ± 0.028 kPa	9.776 ± 0.042	13.75 ± 0.054	vapor or sublimation pressure (351.75 K): 0.124 ± 0.004 kPa; vapor or sublimation pressure (361.8 K): 0.232 ± 0.008 kPa; vapor or sublimation pressure (361.89 K): 0.232 ± 0.008 kPa; vapor or sublimation pressure (371.91 K): 0.422 ± 0.013 kPa; vapor or sublimation pressure (381.93 K): 0.717 ± 0.009 kPa; vapor or sublimation pressure (382.07 K): 0.716 ± 0.009 kPa; vapor or sublimation pressure (391.95 K): 1.186 ± 0.015 kPa; vapor or sublimation pressure (392 K): 1.186 ± 0.015 kPa; vapor or sublimation pressure (402.74 K): 1.947 ± 0.013 kPa; vapor or sublimation pressure (412.69 K): 3.029 ± 0.016 kPa; vapor or sublimation pressure (422.55 K): 4.545 ± 0.021 kPa; vapor or sublimation pressure (432.39 K): 6.661 ± 0.028 kPa; vapor or sublimation pressure (442.49 K): 9.461 ± 0.041 kPa; vapor or sublimation pressure (452.49 K): 13.46 ± 0.053 kPa
